Reference: US20150141435A1, “2-PYRIDONE ANTIMICROBIAL COMPOSITIONS” (Emergent BioSolutions, priority 2010, published 2015)
Values after ≈ are worked out from the molar mass of the structure shown. Where a name gives a salt, the structure may show the parent alone. Read-outs that look alike come from different tables or passages of the source.

Tests used:
Format in all cases: cell-based
P. aeruginosa ATCC 27853 = experiment: MIC, CLSI broth microdilution (Table 2); details: Pseudomonas aeruginosa
K. pneumoniae ATCC 33495 = experiment: MIC, CLSI broth microdilution (Table 2); details: Klebsiella pneumoniae
E. coli ATCC 25922 = experiment: MIC, CLSI broth microdilution (Table 2); details: Escherichia coli
S. pneumonia ATCC 49619 = experiment: MIC, CLSI broth microdilution (Table 1); details: Streptococcus pneumoniae
E. faecalis ATCC 29212 = experiment: MIC, CLSI broth microdilution (Table 1); details: Enterococcus faecalis
[1] = tested on: S. aureus ATCC 43300 (MRSA, FQ-S); experiment: MIC, CLSI broth microdilution (Table 1); details: Staphylococcus aureus, read-out: MIC S. aureus ATCC 43300 (MRSA, FQ-S)
[2] = tested on: S. maltophilia ATCC 17677; experiment: MIC, CLSI broth microdilution (Table 2); details: Stenotrophomonas maltophilia
A. baumannii ATCC 19606 = experiment: MIC, CLSI broth microdilution (Table 2); details: Acinetobacter baumannii
H. influenzae ATCC 49247 = experiment: MIC, CLSI broth microdilution (Table 2); details: Haemophilus influenzae
[3] = tested on: S. aureus BAA-1720 (MRSA, FQ-R); experiment: MIC, CLSI broth microdilution (Table 1); details: Staphylococcus aureus; Gram positive; MHB, 37° C., 16-20 hours; read-out: MIC S. aureus BAA-1720 (MRSA, FQ-R)
E. faecium ATCC 19434 = experiment: MIC, CLSI broth microdilution (Table 1); details: Enterococcus faecium
S. aureus ATCC 25923 = experiment: MIC, CLSI broth microdilution (Table 1); details: Staphylococcus aureus
[4] = ATCC27853, Gram negative, MHB, 37° C., 16-20 hours, read-out: MIC P. aeruginosa ATCC 27853
[5] = ATCC33495, Gram negative, MHB, 37° C., 16-20 hours, read-out: MIC K. pneumoniae ATCC 33495
[6] = ATCC25922, Gram negative, MHB, 37° C., 16-20 hours, read-out: MIC E. coli ATCC 25922
[7] = ATCC49619, Gram positive, MHB, 37° C., 16-20 hours, read-out: MIC S. pneumonia ATCC 49619
[8] = ATCC29212, Gram positive, MHB, 37° C., 16-20 hours, read-out: MIC E. faecalis ATCC 29212
[9] = Gram positive, MHB, 37° C., 16-20 hours
[10] = ATCC17677, Gram negative, MHB, 37° C., 16-20 hours, read-out: MIC S. maltophilia ATCC 17677
[11] = ATCC19606, Gram negative, MHB, 37° C., 16-20 hours, read-out: MIC A. baumannii B. ATCC 19606
[12] = ATCC49247, Gram negative, MHB, 37° C., 16-20 hours, read-out: MIC H. influenzae ATCC 49247
[13] = ATCC19434, Gram positive, MHB, 37° C., 16-20 hours, read-out: MIC E. faecium ATCC 19434
[14] = ATCC25923, Gram positive, MHB, 37° C., 16-20 hours, read-out: MIC S. aureus ATCC 25923
[15] = ATCC33495, read-out: MIC K. pneumoniae ATCC 33495
[16] = ATCC25922, read-out: MIC E. coli ATCC 25922
[17] = ATCC49619, read-out: MIC S. pneumonia ATCC 49619
[18] = ATCC29212, read-out: MIC E. faecalis ATCC 29212
[19] = ATCC17677, read-out: MIC S. maltophilia ATCC 17677
[20] = ATCC19606, read-out: MIC A. baumannii B. ATCC 19606
[21] = ATCC49247, read-out: MIC H. influenzae ATCC 49247
[22] = ATCC25923, read-out: MIC S. aureus ATCC 25923

SMILES | MIC (P. aeruginosa ATCC 27853; [4]) [µg/mL] | MIC (K. pneumoniae ATCC 33495; [5]) [µg/mL] | MIC (E. coli ATCC 25922; [6]) [µg/mL] | MIC (S. pneumonia ATCC 49619; [7]) [µg/mL] | MIC (E. faecalis ATCC 29212; [8]) [µg/mL] | MIC [1, 9] [µg/mL] | MIC [2, 10] [µg/mL] | MIC (A. baumannii ATCC 19606; [11]) [µg/mL] | MIC (H. influenzae ATCC 49247; [12]) [µg/mL] | MIC [3] [µg/mL] | MIC (E. faecium ATCC 19434; [13]) [µg/mL] | MIC (S. aureus ATCC 25923; [14]) [µg/mL] | other results
Cc1c(-c2ccc(NC(N)=O)cc2)ccn2c(=O)c(C(=O)O)cc(C3CC3)c12 [Example 24 K salt, 1-cyclopropyl-9-methyl-4-oxo-8-(4-ureido-phenyl)-4H-quinolizine-3-carboxylic acid] | 8 | 0.5 | 0.125 to 0.25 | 0.032 | 0.032 | 0.032 | > 8 | 4 | 0.016 | > 8 | 0.5 | 0.032 to 0.064 | 
Cc1c(-c2ccc(C(N)=O)cc2)ccn2c(=O)c(C(=O)O)cc(C3CC3)c12 [Example 36 K salt, 8-(4-carbamoyl-phenyl)-1-cyclopropyl-9-methyl-4-oxo-4H-quinolizine-3-carboxylic acid] | 8 | 0.25 | 0.125 | 0.064 | 0.032 | 0.016 | 0.125 | 0.5 | 0.008 | 0.5 | 0.5 | 0.016 to 0.032 | 
Cc1c(-c2ccc(C(=O)O)cc2)c(F)cn2c(=O)c(C(=O)O)cc(C3CC3)c12 [Example 41 K salt, 8-(4-carboxy-phenyl)-1-cyclopropyl-7-fluoro-9-methyl-4-oxo-4H-quinolizine-3-carboxylic acid] | > 8 | > 8 | > 8 | 0.5 to 1 | 0.25 | 0.25 | > 8 | > 8 | 0.032 | > 8 | > 8 | 2 | 
COc1cc(-c2ccn3c(=O)c(C(=O)O)cc(C4CC4)c3c2C)ccc1N [Example 12 K salt, 8-(4-amino-3-methoxy-phenyl)-1-cyclopropyl-9-methyl-4-oxo-4H-quinolizine-3-carboxylic acid] | 8 | 0.5 | 0.25 | 0.25 | 0.064 | 0.016 | 0.5 | 0.25 to 0.5 | 0.032 | 0.5 to 1 | 1 | 0.016 to 0.032 | 
Cc1c(-c2ccc(N)cc2)c(F)cn2c(=O)c(C(=O)O)cc(C3CC3)c12 [Example 5 K salt, 8-(4-amino-phenyl)-1-cyclopropyl-7-fluoro-9-methyl-4-oxo-4H-quinolizine-3-carboxylic acid] |  |  |  |  |  |  |  |  |  |  |  |  | MIC (P. aeruginosa ATCC 27853; ATCC27853, read-out: MIC P. aeruginosa ATCC 27853): 2 µg/mL; MIC (K. pneumoniae ATCC 33495; [15]): 0.125 to 0.25 µg/mL; MIC (E. coli ATCC 25922; [16]): 0.064 µg/mL; MIC (S. pneumonia ATCC 49619; [17]): 0.032 µg/mL; MIC (E. faecalis ATCC 29212; [18]): 0.016 to 0.032 µg/mL; MIC [1]: 0.008 µg/mL; MIC [2, 19]: 0.125 µg/mL; MIC (A. baumannii ATCC 19606; [20]): 0.064 µg/mL; MIC (H. influenzae ATCC 49247; [21]): ≤ 0.004 µg/mL; MIC (E. faecium ATCC 19434; ATCC19434, read-out: MIC E. faecium ATCC 19434): 0.5 µg/mL; MIC (S. aureus ATCC 25923; [22]): 0.008 µg/mL
Cc1c(-c2ccc(C(N)=O)cc2)c(F)cn2c(=O)c(C(=O)O)cc(C3CC3)c12 [Example 6 K salt, 8-(4-carbamoyl-phenyl)-1-cyclopropyl-7-fluoro-9-methyl-4-oxo-4H-quinolizine-3-carboxylic acid] |  |  |  |  |  |  |  |  |  |  |  |  | MIC (K. pneumoniae ATCC 33495; [15]): 0.5 µg/mL; MIC (E. coli ATCC 25922; [16]): 0.125 µg/mL; MIC (S. pneumonia ATCC 49619; [17]): 0.032 µg/mL; MIC (E. faecalis ATCC 29212; [18]): 0.016 µg/mL; MIC [1]: 0.008 µg/mL; MIC [2, 19]: 0.5 µg/mL; MIC (A. baumannii ATCC 19606; [20]): 0.5 µg/mL; MIC (H. influenzae ATCC 49247; [21]): ≤ 0.004 µg/mL; MIC (S. aureus ATCC 25923; [22]): 0.008 to 0.016 µg/mL

Now from value to compound, other results behind:

MIC (P. aeruginosa ATCC 27853; [4]) [µg/mL] | MIC (K. pneumoniae ATCC 33495; [5]) [µg/mL] | MIC (E. coli ATCC 25922; [6]) [µg/mL] | MIC (S. pneumonia ATCC 49619; [7]) [µg/mL] | MIC (E. faecalis ATCC 29212; [8]) [µg/mL] | MIC [1, 9] [µg/mL] | MIC [2, 10] [µg/mL] | MIC (A. baumannii ATCC 19606; [11]) [µg/mL] | MIC (H. influenzae ATCC 49247; [12]) [µg/mL] | MIC [3] [µg/mL] | MIC (E. faecium ATCC 19434; [13]) [µg/mL] | MIC (S. aureus ATCC 25923; [14]) [µg/mL] | SMILES | other results
1 | 0.125 to 0.5 | 0.064 | 2 | 4 | 0.5 | 1 | 1 | 0.064 | > 8 | > 8 | 0.5 | Cc1c(N2CCNCC2)ccn2c(=O)c(C(=O)O)cc(C3CC3)c12 [Example 34 K salt, 1-cyclopropyl-9-methyl-4-oxo-8-piperazin-1-yl-quinolizine-3-carboxylic acid] | 
8 | 0.25 | 0.125 | 0.125 | 0.032 | 0.016 | 0.25 | 0.125 | 0.008 | 0.25 | 1 | 0.016 | Cc1c(-c2cccc(N)c2)c(F)cn2c(=O)c(C(=O)O)cc(C3CC3)c12 [Example 4 K salt, 8-(3-amino-phenyl)-1-cyclopropyl-7-fluoro-9-methyl-4-oxo-4H-quinolizine-3-carboxylic acid] | 
4 | 0.25 | 0.125 | 0.125 | 0.032 | 0.016 | 0.5 | 0.25 | 0.016 | 0.5 | 4 | 0.008 | Cc1c(-c2ccc3[nH]ccc3c2)ccn2c(=O)c(C(=O)O)cc(C3CC3)c12 [Example 22 K salt, 1-cyclopropyl-8-(1H-indol-5-yl)-9-methyl-4-oxo-4H-quinolizine-3-carboxylic acid] | 
4 | 0.5 to 1 | 0.25 | 0.064 | 0.008 to 0.016 | 0.008 | 0.25 | 0.25 | 0.008 to 0.016 | 0.125 | 0.5 | ≤ 0.004 | Cc1c(-c2cc(Cl)c(N)c(Cl)c2)ccn2c(=O)c(C(=O)O)cc(C3CC3)c12 [Example 29 K salt, 1-cyclopropyl-8-(4-amino-3,5-dichloro-phenyl)-9-methyl-4-oxo-4H-quinolizine-3-carboxylic acid] | 
0.5 | 0.125 to 0.5 | 0.032 | 0.032 | 0.125 | 0.032 | 0.125 | 0.25 | 0.008 to 0.016 | 0.5 | 2 | 0.032 | Cc1c(N2CCC[C@H](N)C2)ccn2c(=O)c(C(=O)O)cc(C3CC3)c12 [Example 35 K salt, 8-[(3S)-3-amino-1-piperidyl]-1-cyclopropyl-9-methyl-4-oxo-quinolizine-3-carboxylic acid] | 
4 | 0.125 to 0.25 | 0.064 | 0.032 to 0.064 | 0.032 | 0.008 | 0.25 | 0.125 | 0.008 | 0.25 | 0.5 | 0.008 | Cc1c(-c2ccc(N)cc2F)ccn2c(=O)c(C(=O)O)cc(C3CC3)c12 [Example 7 K salt, 8-(4-amino-2-fluoro-phenyl)-1-cyclopropyl-9-methyl-4-oxo-4H-quinolizine-3-carboxylic acid] | 
2 (≈ 4.98 µM) | 0.125 (≈ 0.311 µM) | 0.032 (≈ 0.0797 µM) | 0.125 (≈ 0.311 µM) | 0.25 (≈ 0.623 µM) | 0.064 (≈ 0.159 µM) | 0.125 (≈ 0.311 µM) | 0.5 (≈ 1.25 µM) | 0.032 (≈ 0.0797 µM) | 4 (≈ 9.96 µM) | 4 (≈ 9.96 µM) | 0.064 (≈ 0.159 µM) | COc1c(N2C[C@@H]3CCCN[C@@H]3C2)c(F)cc2c(=O)c(C(=O)O)cn(C3CC3)c12 [Moxyfloxacin, reference compound] | 
4 | 1 to 2 | 0.25 | 0.25 | 0.032 to 0.064 | 0.016 | 0.5 | 0.5 | 0.032 | 0.5 to 1 | 1 | 0.016 | COc1ccc(-c2ccn3c(=O)c(C(=O)O)cc(C4CC4)c3c2C)cc1 [Example 47 K salt, 1-cyclopropyl-8-(4-methoxy-phenyl)-9-methyl-4-oxo-4H-quinolizine-3-carboxylic acid] | 
